Data from ChEMBL document CHEMBL1152664, “Visual observation of G-quadruplex DNA with the label-free fluorescent probe silole with aggregation-induced emission” (Bioorg Med Chem, 2009).
Calls of active or inactive are those of the source. The calls are words filed in the database; no cut-off is given here.

How the values were obtained:
Type in all cases: nucleic-acid assay
[1] = test system: Nucleic Acid; experiment: Binding affinity to 21G telomeric DNA assessed as formation of G-quadruplex DNA at 20 uM after 5 mins in KCl-deficient buffer by label-free fluorescence spectroscopy in presence of exonuclase 1
[2] = test system: Nucleic Acid; experiment: Binding affinity to 21G telomeric DNA assessed as formation of G-quadruplex DNA at 20 uM after 5 mins by label-free fluorescence spectroscopy in presence of exonuclase 1 and KCl
[3] = test system: Nucleic Acid; experiment: Binding affinity to 21G telomeric DNA assessed as formation of G-quadruplex DNA at 20 uM by circular dichroism assay in presence of KCl and exonuclase 1
[4] = test system: Nucleic Acid; experiment: Binding affinity to 21G telomeric DNA assessed as formation of G-quadruplex DNA at 20 uM after 5 mins by label-free fluorescence spectroscopy in presence of exonuclase 1 and increasing concentration of KCl
[5] = test system: Nucleic Acid; experiment: Binding affinity to 21G telomeric DNA assessed as formation of G-quadruplex DNA at 20 uM after 5 mins by label-free fluorescence spectroscopy in presence of LiCl and exonulease 1
[6] = test system: Nucleic Acid; experiment: Binding affinity to single stranded DNA20 assessed as formation of G-quadruplex DNA at 20 uM by UV light illumination photographic analysis in presence of exonuclase 1 and KCl
[7] = test system: Nucleic Acid; experiment: Binding affinity to 21G telomeric DNA assessed as formation of c-myc G-quadruplex DNA at 20 uM by UV light illumination photographic analysis in presence of exonuclase 1 and KCl
[8] = test system: Nucleic Acid; experiment: Binding affinity to 21G telomeric DNA assessed as formation of c-kit G-quadruplex DNA at 20 uM by UV light illumination photographic analysis in presence of exonuclase 1 and KCl
[9] = test system: Nucleic Acid; experiment: Binding affinity to 21G telomeric DNA assessed as formation of VEGF G-quadruplex DNA at 20 uM by UV light illumination photographic analysis in presence of exonuclase 1 and KCl
[10] = test system: Nucleic Acid; experiment: Binding affinity to 21G telomeric DNA assessed as formation of d(G4T4g4) quadruplex DNA at 20 uM after 5 mins by label-free fluorescence spectroscopy in presence of exonuclase 1 and Na+ cation
[11] = test system: Nucleic Acid; experiment: Binding affinity to 21G telomeric DNA assessed as formation of d(G4T4g4) quadruplex DNA at 20 uM after 5 mins in Na+ cation-deficient buffer by label-free fluorescence spectroscopy in presence of exonuclase 1
[12] = test system: Nucleic Acid; experiment: Binding affinity to 21G telomeric DNA assessed as formation of G-quadruplex DNA at 20 uM after 45 mins in KCl-deficient buffer by label-free fluorescence spectroscopy in presence of exonuclase 1 and TMPyP4
[13] = test system: Nucleic Acid; experiment: Binding affinity to single stranded DNA20 assessed as formation of G-quadruplex DNA at 20 uM after 45 mins in KCl-deficient buffer by label-free fluorescence spectroscopy in presence of exonuclase 1 and TMPyP4
[14] = test system: Nucleic Acid; experiment: Binding affinity to 21G telomeric DNA assessed as formation of G-quadruplex DNA at 20 uM after 45 mins by label-free fluorescence spectroscopy in presence of exonuclase 1, Li+ cation and TMPyP4
[15] = test system: Nucleic Acid; experiment: Binding affinity to 21G telomeric DNA assessed as formation of G-quadruplex DNA at 20 uM after 45 mins by label-free fluorescence spectroscopy in presence of exonuclase 1, KCl and TMPyP4
[16] = test system: Nucleic Acid; experiment: Binding affinity to 21G telomeric DNA assessed as formation of G-quadruplex DNA at 20 uM by UV light illumination photographic analysis in presence of exonuclase 1 and bis-(benzimidazole)aryl
[17] = test system: Nucleic Acid; experiment: Binding affinity to single stranded DNA23 assessed as formation of G-quadruplex DNA at 20 uM by circular dichroism assay in presence of sodium cation and exonuclase 1
[18] = test system: Nucleic Acid; experiment: Binding affinity to single stranded DNA20 assessed as formation of G-quadruplex DNA at 20 uM by UV light illumination photographic analysis in presence of exonuclase 1 and bis-(benzimidazole)aryl
[19] = test system: Nucleic Acid; experiment: Binding affinity to 21G telomeric DNA assessed as formation of G-quadruplex DNA at 20 uM by circular dichroism assay in presence of exonuclase 1 and bis-(benzimidazole)aryl
[20] = test system: Nucleic Acid; experiment: Binding affinity to single stranded DNA20 assessed as formation of G-quadruplex DNA at 20 uM by circular dichroism assay in presence of exonuclase 1 and bis-(benzimidazole)aryl
[21] = test system: Nucleic Acid; experiment: Binding affinity to single stranded DNA20 assessed as formation of G-quadruplex DNA at 20 uM by UV light illumination photographic analysis in presence of exonuclase 1 and sodium cation
[22] = test system: Nucleic Acid; experiment: Binding affinity to single stranded DNA20 assessed as formation of G-quadruplex DNA at 20 uM by UV light illumination photographic analysis in presence of exonuclase 1 and lithium cation
[23] = test system: Nucleic Acid; experiment: Binding affinity to single stranded DNA18 assessed as formation of G-quadruplex DNA at 20 uM by UV light illumination photographic analysis in presence of exonuclase 1 and KCl
[24] = test system: Nucleic Acid; experiment: Binding affinity to single stranded DNA18 assessed as formation of G-quadruplex DNA at 20 uM by UV light illumination photographic analysis in presence of exonuclase 1 and sodium cation
[25] = test system: Nucleic Acid; experiment: Binding affinity to single stranded DNA18 assessed as formation of G-quadruplex DNA at 20 uM by UV light illumination photographic analysis in presence of exonuclase 1 and lithium cation
[26] = test system: Nucleic Acid; experiment: Binding affinity to single stranded DNA23 assessed as formation of G-quadruplex DNA at 20 uM by UV light illumination photographic analysis in presence of exonuclase 1 and sodium cation
[27] = test system: Nucleic Acid; experiment: Binding affinity to single stranded DNA23 assessed as formation of G-quadruplex DNA at 20 uM by UV light illumination photographic analysis in presence of exonuclase 1 and KCl
[28] = test system: Nucleic Acid; experiment: Binding affinity to single stranded DNA23 assessed as formation of G-quadruplex DNA at 20 uM by UV light illumination photographic analysis in presence of exonuclase 1 and lithium cation
[29] = test system: Nucleic Acid; experiment: Binding affinity to single stranded DNA18 assessed as formation of G-quadruplex DNA at 20 uM by circular dichroism assay in presence of KCl and exonuclase 1
[30] = test system: Nucleic Acid; experiment: Binding affinity to single stranded DNA18 assessed as formation of G-quadruplex DNA at 20 uM by circular dichroism assay in presence of lithium cation and exonuclase 1
[31] = test system: Nucleic Acid; experiment: Binding affinity to single stranded DNA18 assessed as formation of G-quadruplex DNA at 20 uM by circular dichroism assay in presence of sodium cation and exonuclase 1
[32] = test system: Nucleic Acid; experiment: Binding affinity to single stranded DNA20 assessed as formation of G-quadruplex DNA at 20 uM by circular dichroism assay in presence of KCl and exonuclase 1
[33] = test system: Nucleic Acid; experiment: Binding affinity to single stranded DNA20 assessed as formation of G-quadruplex DNA at 20 uM by circular dichroism assay in presence of lithium cation and exonuclase 1
[34] = test system: Nucleic Acid; experiment: Binding affinity to single stranded DNA20 assessed as formation of G-quadruplex DNA at 20 uM by circular dichroism assay in presence of sodium cation and exonuclase 1
[35] = test system: Nucleic Acid; experiment: Binding affinity to single stranded DNA23 assessed as formation of G-quadruplex DNA at 20 uM by circular dichroism assay in presence of KCl and exonuclase 1
[36] = test system: Nucleic Acid; experiment: Binding affinity to single stranded DNA23 assessed as formation of G-quadruplex DNA at 20 uM by circular dichroism assay in presence of lithium cation and exonuclase 1

SMILES: C[N+](C)(C)CCC[Si]1(C)C(c2ccccc2)=C(c2ccccc2)C(c2ccccc2)=C1c1ccccc1
- Activity [1]: inactive
- Activity [2]: Active
- Activity [3]: Active
- Activity [4]: Active
- Activity [5]: inactive
- Activity [6]: inactive
- Activity [7]: Active
- Activity [8]: Active
- Activity [9]: Active
- Activity [10]: Active
- Activity [11]: inactive
- Activity [12]: inactive
- Activity [13]: inactive
- Activity [14]: inactive
- Activity [15]: Active
- Activity [16]: Active
- Activity [17]: inactive
- Activity [18]: inactive
- Activity [19]: Active
- Activity [20]: inactive
- Activity [21]: inactive
- Activity [22]: inactive
- Activity [23]: inactive
- Activity [24]: inactive
- Activity [25]: inactive
- Activity [26]: inactive
- Activity [27]: inactive
- Activity [28]: inactive
- Activity [29]: inactive
- Activity [30]: inactive
- Activity [31]: inactive
- Activity [32]: inactive
- Activity [33]: inactive
- Activity [34]: inactive
- Activity [35]: inactive
- Activity [36]: inactive
